# Assay results from patent publication EP1671630A2, “L-Arginine based formulations for treating diseases and methods of using the same” (Angiogenix, Inc., priority 1999, dated 2000).
# Where two headings read alike, the source gives them in different places.
# What was measured:
# y^+ transporter = test: Cellular uptake of [3H]-L-arginine via y+ transport in the presence of NOS agonists and NO donors; format: cell-based, bovine; details: for increase of [^3H]-LA uptake / increase of LA uptake: Ach 5 µM; for maximum inhibition of LA transport: Fig. 8; for inhibition of LA transport: data not shown
# Procedure: Characterization of L-arginine transport system in bovine aortic endothelial cells. […] Prior to experiments, cells were split 1:4, transferred into 24 well plates, and allowed to grow to confluency. […] CaCl2, 1.8 mM; KCl 5.4 mM, choline 140 mM; […] Uptake of LA was terminated by addition of ice cold buffer and cells were washed three times with 1 ml of buffer. […] Cellular uptake of LA via B^α+ system was determined by substituting sodium chloride for choline and incubating as described above. The difference in uptake determined for both transporters and that observed for y+ alone represented the amount of LA uptake contributed by sodium-dependent B^α+ system. […] It has been previously reported that passive, non-saturable diffusion of LA can occur but only when extracellular levels of LA are within the millimolar concentration. […] Uptake of LA was terminated and total cellular transport of LA determined as described above.
# [1] = cited from earlier work
# Bovine aortic EC = test: LA transport after exposure to homocysteine and its thiolactone; format: cell-based
# Source text: A third aspect of the present invention is the treatment, prevention, or amelioration of homocysteinemia with L-arginine alone. Hyperhomocysteinemia is associated with vascular EC dysfunction and increased risk for atherosclerosis and atherothrombosis. Free radical formation during homocyst(e)ine auto-oxidation has been implicated in its vascular toxicity. Long-term EC exposure to homocyst(e)ine limits nitric oxide synthase (NOS) activity, increasing EC vulnerability to oxidative injury (Stamler et al., 1993). To see whether these effects could be due to alterations in cellular availability of the NOS substrate LA, we tested the effects on LA transport of D,L-homocysteine (DLH) and an auto-oxidation product, L-homocysteine thiolactone (LHT). Bovine aortic EC were exposed to DLH and LHT (1.1-5 mM) for 6 and 24 hours and then incubated with […] [^3H]-LA for 1 min. Cells were washed with ice cold buffer, lysed in 0.5% SDS in 0.1 N NaOH and radioactivity was determined. DLH increased LA uptake in a concentration dependent manner at 6 hr. […] However, after 24 hr. exposure LA uptake was decreased (25-40%).
# [2] = tested on: bovine aortic endothelial cells (BAEC); test: Cellular superoxide anion formation (SOD-inhibitable reduction of ferricytochrome C); format: cell-based; details: for inhibition of O2^•- production induced by A-23187: 5 × 10^-4M, A-23187 1 µM; for inhibition at 500 µM: Bos taurus, BAEC
# Procedure: Cellular superoxide anion formation in the presence of NOS agonists. […] After reaching confluency, cells were washed 3 times (3 ml) with Dulbecco's phosphate buffered saline (DPBS) and 2 coverslips were placed in a disposable plastic cuvette facing each other. DPBS (1.8 ml) was gently placed in cuvette in addition to ferricytochrome C (final concentration, 50 µmol/L). […] Change in absorbance over time was determined and the amount of superoxide anion [ε=[…]] generated was determined over time and reported as pmoles O2^•-/min./10^6 cells.
# [3] = target: T1, nitric oxide synthase (NOS) (Bos taurus, UniProt P29473); test: NO production in cultured endothelial cells (oxyhemoglobin to methemoglobin conversion and NO sensitive electrode); format: cell-based, bovine
# T1 construct: DOX activity as a NOS agonist was investigated in cultured bovine aortic EC; endogenous in cells; host or cells: cultured bovine aortic endothelial cells
# Source text: Doxazosin, a selective alpha-1 blocker, is pharmacologically similar to prazosin and terazosin. It has been shown that selective alpha-1 blockers lower total and LDL cholesterol. Thus, these selective alpha-1 blockers may be useful in treating both hypertension and hypercholesterolemia. […] In fact, a wide variety of vasoactive agents (e.g. bradykinin, muscarinic agonists and growth factors) which increase tPA levels are also agonists of nitric oxide synthase (NOS). DOX activity as a NOS agonist was investigated in cultured bovine aortic EC using two methods to assess NO production: conversion of oxyhemoglobin to methamoglobin and a NO sensitive electrode. […] This increase in NO to DOX (10^-6 M) was blocked by 72% by prior administration of the NOS inhibitor, L-NAME (5 x 10^-4 M). In addition, the NO responses were accentuated by the presence of supplemental L-arginine (5 x 10^-4 M) by 65%. […] This increase in NO to ACH (10^-6 M) was blocked by 86% by prior administration of L-NAME. In addition, the NO responses were accentuated by 72% in the presence of supplemental L-arginine. DOX, therefore, appears to be a NOS agonist in EC.
# For all experiments, human coronary artery endothelial cells (passage 3-5 - Clonetics) were maintained at 37°, […] and 5% CO2 in Medium 199 (M199) supplemented with 5% fetal bovine serum (FBS, Hyclone), 10% iron supplemented FBS (Hyclone), thymidine (100mg mL^-1), penicillin G (100U mL^-1) and streptomycin (100µg mL^-1).
# In all experiments, the effects of pretreatment with L-NAME (10^-3 M) in blocking the actions of DOX, and excess L-arginine (10^-3 M) in reversing any L-NAME effect was examined. Acetylcholine, an eNOS agonist, was used in all experiments as the positive control at concentrations of 10^-7 and 10^-6 M.
# Methemoglobin - The effect of DOX on NO production in EC was determined using a photometric assay for conversion of oxyhemoglobin to methemoglobin. For this assay, EC grown to confluency on microcarrier beads are placed into a water-jacketed chromatography column and superfused with a Kreb's-Ringer buffer containing 3 µM oxyhemoglobin and 50 µM LA (L-arginine). Perfusate is then directed into a flow-through cuvette in a dual wavelength spectrophotometer and change in absorbancy (415/405 nm) is measured. Experimental stimulation was carried out by 3 min infusion periods of DOX added to buffer perfusion to yield final concentrations of 10^-7 and 10^-6 M. For analysis, we determined the area under the curve for the change in absorbancy response/min caused by DOX assuming a one to one correspondence for NO and metHb production, the known stoichiometric balance for this reaction. No electrode - NO production was measured with a NO meter connected to a polargraphic NO electrode as previously described. The NO sensor probe will be inserted vertically into 24-well plates containing confluent EC such that the tip of the electrode is submerged 2 mm under the surface of medium (above - 1ml). The reaction was initiated when desired concentrations of DOX are added to the well. Calibrations were performed with S-nitroso-acetyl-penicillamine.
# [4] = read-out: reduced O2· induced by SP
compound,measurement,setting,value
"CC(=O)OCC[N+](C)(C)C [Acetylcholine, acetylcholine]",increase of [^3H]-LA uptake,y^+ transporter; 2 minute exposure,22%
same,increase of [^3H]-LA uptake,y^+ transporter; 15 minute (maximum),27%
same,increase of LA uptake,y^+ transporter; 30 minutes,16%
same,increase of LA uptake,y^+ transporter; 60 minutes,15.5%
"CC(=O)N[C@H](C(=O)O)C(C)(C)SN=O [SNAP, S-nitroso-acetyl-penicillamine]",increased activity of the Y^+ transporter,"y^+ transporter; 200 µM SNAP (0.4 µM NO), ten minutes of exposure",37%
same,elevation of Y^+ transporter activity,"y^+ transporter; 200 µM SNAP, 30 minute exposure",not seen
same,uptake of [^3H]-LA reduced,"y^+ transporter; 200 µM SNAP, 1 hour",22%
same,reduction of uptake of [^3H]-LA,"y^+ transporter; 200 µM SNAP, 2 hour exposure",46%
same,reduction of uptake of [^3H]-LA,"y^+ transporter; 200 µM SNAP, 3 hour exposure",45%
same,reduction of uptake of [^3H]-LA,"y^+ transporter; 200 µM SNAP, 5 hour exposure",36%
same,t1/2 of NO donation,[1],~ 10 minutes
"NC(CCS)C(=O)O (racemic) [DLH, D,L-homocysteine]",LA uptake decreased,"Bovine aortic EC; 24 hr. exposure, 1.1-5 mM",25-40%
same,activation at 5000 µM,"Bovine aortic EC; Bos taurus, 5 mM, 6 hr exposure, read-out: maximum increase of LA uptake",53%
CNc1ccc2oc(C[C@H]3O[C@@]4(CC[C@H]3C)O[C@H]([C@H](C)C(=O)c3ccc[nH]3)[C@H](C)C[C@H]4C)nc2c1C(=O)O [A-23187],increased O2· production above basal levels,[2],2.5 fold
"bradykinin (RPPGFSPFR; Bradykinin; UniProt P01042 381-389, looked up) [BK]",increase of cellular transport of LA,"y^+ transporter; BK 1αM, 15 minute exposure (maximum)",42%
same,increase of cellular transport of LA,"y^+ transporter; BK 1αM, 30 minutes",39%
same,increase of cellular transport of LA,"y^+ transporter; BK 1αM, 60 minutes",16%
same,enhanced cellular uptake of LA,"y^+ transporter; BK 1αM, 2 hour exposure",38%
same,increase in transport of LA,"y^+ transporter; BK 1αM, 3 hour exposure",19%
same,increase in transport of LA,"y^+ transporter; BK 1αM, 5 hour exposure",22%
"COc1cc2nc(N3CCN(C(=O)C4COc5ccccc5O4)CC3)nc(N)c2cc1OC (stereo not shown) [DOX, Doxazosin]",dose-related increase in NO production,"[3]; DOX 10^-7 - 10^-5 M, cultured bovine aortic EC",64-145%
"COC(=O)[C@@H](N)CCCN=C(N)N[N+](=O)[O-] [L-NAME, n-ω-nitro-L-arginine methyl ester]",inhibition of O2^•- production induced by A-23187,[2],58%
same,inhibition at 500 µM,"[2]; 1 h, read-out: prevented basal production of O2^•-",100%
same,inhibition at 500 µM,[2]; [4],81%
same,increase in NO blocked by prior administration of L-NAME,[3]; NO response to ACH 10^-6 M,86%
same,inhibition at 500 µM,[3]; read-out: increase in NO blocked by prior administration of L-NAME,72%
"NCCCN(CCCN)/[N+]([O-])=N/O [DPTA-NONOate, dipropylenetriamine NONOate]",maximum inhibition of LA transport,"y^+ transporter; 0.01 µM DPTA, 2 hour exposure",20%
same,effect on y^+ system,"y^+ transporter; 1 µM DPTA-NONOate (2 µM NO), 15 and 30 min",no significant effect
same,inhibition of LA transport,"y^+ transporter; 1 µM DPTA-NONOate (2 µM NO), 1 hour exposure",22%
same,inhibition of LA transport,"y^+ transporter; 1 µM DPTA-NONOate (2 µM NO), 2 hour exposure",24%
same,inhibition of LA transport,"y^+ transporter; 1 µM DPTA-NONOate (2 µM NO), 4 hour exposure",29%
same,maximum inhibition of LA transport,"y^+ transporter; 1 µM DPTA, 2 hour exposure",24%
same,maximum inhibition of LA transport,"y^+ transporter; 10 µM DPTA, 2 hour exposure",44%
"N[C@H]1CCSC1=O [LHT, L-homocysteine thiolactone]",LA transport,"Bovine aortic EC; after 6 and 24 hrs exposure, 1.1-5 mM",dose-related decrease
N=C(N)NCCC[C@H](N)C(=O)O [L-arginine],inhibition of O2^•- production induced by A-23187,[2],60%
same,inhibition at 500 µM,[2]; [4],51%
same,prevention of basal production of O2^•-,"[2]; LA 5 x 10^-4M, basal",not
same,NO responses accentuated by supplemental L-arginine,"[3]; NO responses to DOX, L-arginine 5 x 10^-4 M",65%
same,NO responses accentuated in the presence of supplemental L-arginine,[3]; NO responses to acetylcholine,72%
"CSCC[C@H](NC(=O)[C@H](CC(C)C)NC(=O)CNC(=O)[C@H](Cc1ccccc1)NC(=O)[C@H](Cc1ccccc1)NC(=O)[C@H](CCC(N)=O)NC(=O)[C@H](CCC(N)=O)NC(=O)[C@@H]1CCCN1C(=O)[C@H](CCCCN)NC(=O)[C@@H]1CCCN1C(=O)[C@@H](N)CCCNC(=N)N)C(N)=O [SP, substance P]",increased O2· production above basal levels,"[2]; 1 µM, 60 minute period",3.5 fold
same,increase of y^+ transport of LA into cells,"y^+ transporter; SP 1µM, 15 minutes exposure",24%
same,increase of y^+ transport of LA into cells,"y^+ transporter; SP 1µM, 30 minutes",24%
same,increase of y^+ transport of LA into cells,"y^+ transporter; SP 1µM, 60 minutes",21%
same,y^+ transporter activity enhanced from control values,"y^+ transporter; SP 1µM, 2 hour exposure",≤ 34%
same,cellular LA increase,"y^+ transporter; SP 1µM, 3 hour exposure",27%
same,cellular LA increase,"y^+ transporter; SP 1µM, 5 hour exposure",21%
